Test results taken from ChEMBL document CHEMBL1201862, “PubChem BioAssay data set” (2004).
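Five compound concentrations were applied to cells in 96-well plates for 48 hours; endpoints were derived by simple linear interpolation of the resulting dose-response curve. GI50 marks 50% less growth.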 Active and inactive are the calls of the source. Cut-off read from the data, not from the text of the source: active = GI50 up to about 1.1 µM and inactive = higher.

Tests used:
Assay in all cases: NCI anticancer screen, dose series, 48 h
786-0 = system: 786-0
A549 = system: A549
COLO 205 = system: COLO 205
DU-145 = system: DU-145
HL-60 = system: HL-60
KM-20L2 = system: KM-20L2
M19-MEL = system: M19-MEL
MCF7 = system: MCF7
MDA-MB-231 = system: MDA-MB-231
MDA-MB-435 = system: MDA-MB-435
NCI-H460 = system: NCI-H460
OVCAR-3 = system: OVCAR-3
OVCAR-4 = system: OVCAR-4
OVCAR-5 = system: OVCAR-5
OVCAR-8 = system: OVCAR-8
PC-3 = system: PC-3
SK-OV-3 = system: SK-OV-3
SR = system: SR
UACC-257 = system: UACC-257
UACC-62 = system: UACC-62

CC(=O)OC1=CC2(OC(C)=O)CC(C)(C)C1C1C(=O)C=CC(=O)C12 (stereo not given)
GI50 (786-0): > 50.7 µM (inactive)
GI50 (A549): > 100 µM (inactive)
GI50 (COLO 205): > 42.5 µM (inactive)
GI50 (DU-145): > 100 µM (inactive)
GI50 (HL-60): > 100 µM (inactive)
GI50 (KM-20L2): > 100 µM (inactive)
GI50 (M19-MEL): > 100 µM (inactive)
GI50 (MCF7): 32.7 µM (inactive)
GI50 (MDA-MB-231): 54 µM (inactive)
GI50 (MDA-MB-435): 22.9 µM (inactive)
GI50 (NCI-H460): > 62.8 µM (inactive)
GI50 (OVCAR-3): > 66.7 µM (inactive)
GI50 (OVCAR-4): > 100 µM (inactive)
GI50 (OVCAR-5): > 100 µM (inactive)
GI50 (OVCAR-8): > 58.2 µM (inactive)
GI50 (PC-3): 57.8 µM (inactive)
GI50 (SK-OV-3): > 100 µM (inactive)
GI50 (SR): > 64.3 µM (inactive)
GI50 (UACC-257): > 100 µM (inactive)
GI50 (UACC-62): 15.7 µM (inactive)

Cc1nc2ccccc2c(=O)n1/N=C(\N=N\c1cc(Cl)ccc1Cl)c1ccccc1
GI50 (786-0): 74.1 µM (inactive)
GI50 (A549): 71 µM (inactive)
GI50 (COLO 205): 61.1 µM (inactive)
GI50 (DU-145): > 100 µM (inactive)
GI50 (HL-60): 58.5 µM (inactive)
GI50 (KM-20L2): 0.412 µM (active)
GI50 (M19-MEL): 77.4 µM (inactive)
GI50 (MCF7): 8.04 µM (inactive)
GI50 (MDA-MB-231): > 100 µM (inactive)
GI50 (MDA-MB-435): 21.3 µM (inactive)
GI50 (NCI-H460): 45.8 µM (inactive)
GI50 (OVCAR-3): 53.2 µM (inactive)
GI50 (OVCAR-4): 51.8 µM (inactive)
GI50 (OVCAR-5): > 100 µM (inactive)
GI50 (OVCAR-8): 65.9 µM (inactive)
GI50 (PC-3): 55.3 µM (inactive)
GI50 (SK-OV-3): > 63 µM (inactive)
GI50 (SR): 44.8 µM (inactive)
GI50 (UACC-257): 17.4 µM (inactive)
GI50 (UACC-62): 45.8 µM (inactive)

O=C(Cc1ccccc1)NN1C(=O)C(Cl)C1c1cc(Br)cc(Br)c1O (stereo not given)
GI50 (786-0): 10.1 µM (inactive)
GI50 (A549): 15.9 µM (inactive)
GI50 (COLO 205): 21.3 µM (inactive)
GI50 (HL-60): 2.13 µM (inactive)
GI50 (KM-20L2): 24.7 µM (inactive)
GI50 (M19-MEL): 15.8 µM (inactive)
GI50 (NCI-H460): 3.87 µM (inactive)
GI50 (OVCAR-3): 2.71 µM (inactive)
GI50 (OVCAR-4): 13 µM (inactive)
GI50 (OVCAR-5): 16.1 µM (inactive)
GI50 (OVCAR-8): 8.87 µM (inactive)
GI50 (SK-OV-3): 15.1 µM (inactive)
GI50 (SR): 0.794 µM (active)
GI50 (UACC-257): 11.5 µM (inactive)
GI50 (UACC-62): 10.3 µM (inactive)

C/C(=C\C(=O)Nc1ccc2[nH]nnc2c1)Nc1ccc2[nH]nnc2c1
GI50 (786-0): > 100 µM (inactive)
GI50 (A549): > 100 µM (inactive)
GI50 (COLO 205): > 100 µM (inactive)
GI50 (HL-60): > 100 µM (inactive)
GI50 (KM-20L2): > 100 µM (inactive)
GI50 (M19-MEL): > 100 µM (inactive)
GI50 (NCI-H460): > 100 µM (inactive)
GI50 (OVCAR-3): > 100 µM (inactive)
GI50 (OVCAR-4): > 100 µM (inactive)
GI50 (OVCAR-5): > 100 µM (inactive)
GI50 (OVCAR-8): > 100 µM (inactive)
GI50 (SK-OV-3): > 100 µM (inactive)
GI50 (SR): > 100 µM (inactive)
GI50 (UACC-257): > 100 µM (inactive)
GI50 (UACC-62): > 100 µM (inactive)

O=[N+]([O-])c1ccc(-n2nnc(C3=NCCCN3)c2-c2ccc(Cl)cc2)cc1
GI50 (786-0): > 100 µM (inactive)
GI50 (A549): > 100 µM (inactive)
GI50 (COLO 205): 30.5 µM (inactive)
GI50 (HL-60): 46.3 µM (inactive)
GI50 (KM-20L2): > 100 µM (inactive)
GI50 (M19-MEL): 69.5 µM (inactive)
GI50 (NCI-H460): > 100 µM (inactive)
GI50 (OVCAR-3): > 100 µM (inactive)
GI50 (OVCAR-4): > 100 µM (inactive)
GI50 (OVCAR-5): > 100 µM (inactive)
GI50 (OVCAR-8): > 100 µM (inactive)
GI50 (SK-OV-3): > 100 µM (inactive)
GI50 (SR): 29 µM (inactive)
GI50 (UACC-257): 67.1 µM (inactive)
GI50 (UACC-62): > 100 µM (inactive)

CC(C)(O)[C@@H]1CCC(C)([C@H]2[C@@H](O)CC3(C)C4CC(OC5OC(CO)C(O)C(O)C5O)C5C(C)(C)[C@@H](OC6OCC(O)C(O)C6O)CC[C@@]56C[C@@]46CC[C@]23C)O1 (stereo not given in full)
GI50 (786-0): > 100 µM (inactive)
GI50 (A549): > 100 µM (inactive)
GI50 (COLO 205): > 100 µM (inactive)
GI50 (HL-60): > 100 µM (inactive)
GI50 (KM-20L2): > 100 µM (inactive)
GI50 (M19-MEL): > 100 µM (inactive)
GI50 (NCI-H460): > 100 µM (inactive)
GI50 (OVCAR-3): > 100 µM (inactive)
GI50 (OVCAR-4): > 100 µM (inactive)
GI50 (OVCAR-5): > 100 µM (inactive)
GI50 (OVCAR-8): > 100 µM (inactive)
GI50 (SK-OV-3): > 100 µM (inactive)
GI50 (SR): > 100 µM (inactive)
GI50 (UACC-257): > 100 µM (inactive)
GI50 (UACC-62): > 100 µM (inactive)

O=NN(CCCl)C(=O)NCCCl [CARMUSTINE]
GI50 (786-0): 42.3 µM (inactive)
GI50 (A549): 103 µM (inactive)
GI50 (COLO 205): 72.3 µM (inactive)
GI50 (DU-145): 169 µM (inactive)
GI50 (HL-60): 16.7 µM (inactive)
GI50 (KM-20L2): 94 µM (inactive)
GI50 (M19-MEL): 77.6 µM (inactive)
GI50 (MCF7): 68.9 µM (inactive)
GI50 (MDA-MB-231): 91 µM (inactive)
GI50 (MDA-MB-435): 75.5 µM (inactive)
GI50 (NCI-H460): 52.5 µM (inactive)
GI50 (OVCAR-3): 83.6 µM (inactive)
GI50 (OVCAR-4): 87.9 µM (inactive)
GI50 (OVCAR-5): 105 µM (inactive)
GI50 (OVCAR-8): 77.8 µM (inactive)
GI50 (PC-3): 97.7 µM (inactive)
GI50 (SK-OV-3): 115 µM (inactive)
GI50 (SR): 14 µM (inactive)
GI50 (UACC-257): 75.5 µM (inactive)
GI50 (UACC-62): 23.8 µM (inactive)
